Test results taken from patent US20220213030A1, “AMINOGUANIDINE HYDRAZONES AS RETROMER STABILIZERS USEFUL FOR TREATING NEUROLOGICAL DISEASES” (OSPEDALE SAN RAFFAELE SRL, priority 2019, published 2022).

What was measured:
CI-MPR = CI-MPR MFI in MNs of G93A mice; format: in vivo, mouse; conditions: 10 mg/kg, day 100
Text: We next assayed retromer proteins labelling sections of mice sacrificed at day 100 for VPS35 and NeuN. […] Similarly, we observed that VPS26 levels were increased in G93A mice receiving compound 2a (FIG. 11B). We further corroborated our experimental finding observing that compound 2a increased retromer functionality. The cation-independent mannose 6-phosphate receptor (CI-MPR) is a cargo (Arighi et al., 2004) of the retromer complex that is unstable in VPS26 knockout cells (Seaman 2004). We observed a substantial reduction of CI-MPR MFI levels in MNs of vehicle-treated G93A mice when compared with WT litters (FIG. 11C). […] Sortilin encodes for a receptor belonging to the Vps10 family, and it has been involved in Frontotemporal Dementia (FTD), (Lane 2012).
Sections from mice (frozen cryo sections) or glass covers containing cells were washed three times in PBS 1× (Lonza, 5 min each), and incubated in the following blocking mix: PBS 1×/FBS 10% (Invitrogen), BSA 1 mg/mL (Sigma), TritonX100 0.1% (Sigma), for 1 h at room temperature. Antibodies were diluted in blocking mix and incubated at +4° C. overnight according manufacturer's instructions. […]

LC3 = test: pHfluorin-LC3 autophagy assay in Neuro2a clone 7B11; format: cell-based, mouse; conditions: 48 hours
Method: Besides increasing the functionality of lysosomes we hypothesised that compound 2a could also enhance the autophagy system. Therefore we used a pHfluorin-LC3-based assay to monitor the autophagy process in living Neuro2a cells. We have established in our laboratory a Neuro2a stable cell clone (7B11) that expresses the Microtubule-associated protein 1A/1B-light chain 3 (LC3) coupled with the ph-sensitive GFP/phlourin.
Neuro2a-7B11 cells were incubated with increasing concentrations of compound 2a (0.1-100 μM) as well as with the control molecules Bafilomycin Al and Torin-1. After 48 hours the GFP/phluorin signal, which is ph-sensitive, was measured by flow cytometry and fold changes calculated over untreated cells.
Autophagy assay were done using a stable Neuro2a cell clone expressing the pHluorin-mKate2-tagged human LC3 plasmids, Cell clones were generated according our published methods (Mazzocchi 2016). Upon transfection, cells were selected by 400 μg/mL G418 Disulfate Salt Solution (Sigma-Aldrich, St. Louis, Mo.) and further cloned by limiting dilution. […] Neuro2a 7B11 cells were treated with Compound 2a (0.1-100 μM) for 48 hours then MFI levels of the pHfluorin were measured in living cells by flow cytometry.

N=C(N)NN=Cc1cccc(C=NNC(=N)N)c1 [Compound 2a, 1,3-Bis-amino guanidine phenyl hydrazone]
CI-MPR MFI levels (CI-MPR): significantly increased
GFP/phluorin signals (fold changes over untreated cells) (LC3; 0.1 and 1μM): did not change
GFP/phluorin fluorescence levels (fold changes over untreated cells) (LC3; 10 and 100 μM): significant reduction of fluorescence levels
